Reference: US8173645B2 (Takeda San Diego, Inc., priority 2007, dated 2012)

Target: T1, glucokinase (GK), residues 12-465 of the human enzyme (Homo sapiens, UniProt P35557)
T1 construct: I.D. No. 1 corresponds to residues 12-465 of glucokinase; made in house; host or cells: E. coli DH10b-Tlr
T1 sequence (P35557 with tags, fused parts or gaps isoform P35557-2): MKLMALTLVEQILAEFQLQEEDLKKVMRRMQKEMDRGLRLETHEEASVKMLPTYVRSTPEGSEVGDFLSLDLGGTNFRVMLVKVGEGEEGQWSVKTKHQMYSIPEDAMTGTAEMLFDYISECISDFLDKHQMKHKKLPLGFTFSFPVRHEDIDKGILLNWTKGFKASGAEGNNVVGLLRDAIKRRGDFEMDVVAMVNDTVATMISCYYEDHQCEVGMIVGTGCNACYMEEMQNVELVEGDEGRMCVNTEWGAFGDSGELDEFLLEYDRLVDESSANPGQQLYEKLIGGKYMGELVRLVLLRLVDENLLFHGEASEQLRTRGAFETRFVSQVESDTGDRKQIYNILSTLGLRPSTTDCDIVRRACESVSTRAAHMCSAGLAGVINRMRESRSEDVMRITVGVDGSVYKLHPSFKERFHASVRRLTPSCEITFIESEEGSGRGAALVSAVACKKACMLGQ
Test: Enzymatic glucokinase activity assay (KinaseGlo luminescence, ATP consumption)
Format: biochemical
Conditions: 5 μM ATP, 5 mM Glucose; for EC50: GK activation, Kact = concentration giving 50% of the maximal increase in GK activity, read-out: pKact; for Emax: calculated maximal gain in GK enzyme activity at a saturating concentration of the compound, read-out: % ACTmax
Description: The activity of compounds as glucokinase activators may be assayed in vitro, in vivo or in a cell line. Provided below is an enzymatic glucokinase activity assay.
Purified glucokinase may be obtained as follows. DNA encoding residues 12-465 of the full-length sequence of the human enzyme may be amplified by PCR and cloned into the HindIII and EcoRI sites of pFLAG-CTC (Sigma). SEQ. I.D. No. 1 corresponds to residues 12-465 of glucokinase.
The expression of recombinant glucokinase protein may be carried out by transformation and growth of DH10b-Tlr E. coli cells incorporating the (pFLAG-CTC) plasmid in LB media. Protein expression can be induced in this system by the addition of IPTG to the culture medium.
Recombinant protein may be isolated from cellular extracts by passage over Sepharose Q Fast Flow resin (Pharmacia). This partially purified GK extract may then be further purified by a second passage over Poros HQ 10 (Applied Biosystems). The purity of GK may be determined on denaturing SDS-PAGE gel. Purified GK may then be concentrated to a final concentration of 20.0 mg/ml. After flash freezing in liquid nitrogen, the proteins can be stored at −78° C. in a buffer containing 25 mM TRIS-HCl pH 7.6, 50 mM NaCl, and 0.5 mM TCEP.
The activation properties of compounds for GK may be determined using a black 384-well-plate format under the following reaction conditions: 25 mM Hepes pH 7.2, 25 mM NaCl, 10 mM MgCl2, 0.01% Brij35, 1 mM DTT, 5 μM ATP, 5 mM Glucose 2% DMSO. The amount of ATP consumed may be determined quantitatively by addition of equal volume of luciferase reagent (luciferase+beetle luciferin—KinaseGlo Luminescent Kinase Assay kit from Promega). The luminescence intensity may be measured by using the Analyst HT from LJL Biosystems.
The assay reaction may be initiated as follows: 4 μl of substrate mixture (12.5 μM ATP and 12.5 mM Glucose) was added to each well of the plate, followed by the addition of 2 μl of activator (2 fold serial dilutions for 11 data points for each activator) containing 10% DMSO. 4 μL of 1.25 nM GK solution may be added to initiate the reaction. The reaction mixture may then be incubated at room temperature for 60 min, and quenched and developed by addition of 10 μL of luciferase reagent. Luminescence intensities of the resulting reaction mixtures may be measured after a 10 min incubation at room temperature. The luminescence intensity may be measured by using the Analyst HT from LJL Biosystems.
pKact and % ACTmax values may be calculated by non-linear curve fitting of the compound concentrations and luminescence intensities to a standard inhibition/activation equation.

SMILES	EC50	Emax
Cn1cc(S(=O)(=O)N2CCN([C@@H](CC3CCCCC3)C(=O)Nc3nccs3)C(=O)C2)c(C(F)(F)F)n1 [Example 198, (S)-3-cyclohexyl-2-(4-(1-methyl-3-(trifluoromethyl)-1H-pyrazol-4-ylsulfonyl)-2-oxopiperazin-1-yl)-N-(thiazol-2-yl)propanamide]	1580 to 2510 nM	108 to 119%
O=C(Nc1nccs1)[C@H](CC1CCCCC1)N1CCN(S(=O)(=O)c2cccc([N+](=O)[O-])c2)CC1=O [Example 156, (S)-3-cyclohexyl-2-(4-(3-nitrophenylsulfonyl)-2-oxopiperazin-1-yl)-N-(thiazol-2-yl)propanamide]	1580 to 2510 nM	97.1 to 107%
O=C(Nc1nccs1)[C@H](CC1CCCCC1)N1CCN(S(=O)(=O)c2ccc(F)c(F)c2F)CC1=O [Example 183, (S)-3-cyclohexyl-2-(2-oxo-4-(2,3,4-trifluorophenylsulfonyl)piperazin-1-yl)-N-(thiazol-2-yl)propanamide]	794 to 1260 nM	≥ 119%
O=C(Nc1nccs1)[C@H](CC1CCCCC1)N1CCN(C(=S)Nc2ccc(C(F)(F)F)cc2)CC1=O [Example 85, (S)-3-cyclohexyl-2-(2-oxo-4-(4-(trifluoromethyl)phenylcarbamothioyl)piperazin-1-yl)-N-(thiazol-2-yl)propanamide]	≥ 3160 nM	≤ 74%
O=C(Nc1ncc(Cl)s1)[C@H](CC1CCOCC1)N1CCN(S(=O)(=O)C2CC2)CC1=O [Example 24, (S)-N-(5-chlorothiazol-2-yl)-2-(4-(cyclopropylsulfonyl)-2-oxopiperazin-1-yl)-3-(tetrahydro-2H-pyran-4-yl)propanamide]	794 to 1260 nM	≥ 119%
Cn1nc(-c2ccc(S(=O)(=O)N3CCN([C@@H](CC4CCCCC4)C(=O)Nc4nccs4)C(=O)C3)s2)cc1C(F)(F)F [Example 175, (S)-3-cyclohexyl-2-(4-(5-(1-methyl-5-(trifluoromethyl)-1H-pyrazol-3-yl)thiophen-2-ylsulfonyl)-2-oxopiperazin-1-yl)-N-(thiazol-2-yl)propanamide]	≥ 3160 nM	≤ 74%
O=C(Nc1nccs1)[C@H](CC1CCCCC1)N1CCN(S(=O)(=O)c2ccc(Br)c(Br)c2)CC1=O [Example 231, (S)-3-cyclohexyl-2-(4-(3,4-dibromophenylsulfonyl)-2-oxopiperazin-1-yl)-N-(thiazol-2-yl)propanamide]	794 to 1260 nM	≤ 74%
O=C(Nc1nccs1)[C@H](CC1CCCCC1)N1CCN(S(=O)(=O)Cc2ccc(C(F)(F)F)cc2)CC1=O [Example 210, (S)-3-cyclohexyl-2-(2-oxo-4-(4-(trifluoromethyl)benzylsulfonyl)piperazin-1-yl)-N-(thiazol-2-yl)propanamide]	≥ 3160 nM	≤ 74%
O=C(Nc1nccs1)[C@H](CC1CCCCC1)N1CCN(S(=O)(=O)c2cc(Cl)c(Cl)cc2Cl)CC1=O [Example 219, (S)-3-cyclohexyl-2-(2-oxo-4-(2,4,5-trichlorophenylsulfonyl)piperazin-1-yl)-N-(thiazol-2-yl)propanamide]	1580 to 2510 nM	≤ 74%
O=C(Nc1nccs1)[C@H](CC1CCCCC1)N1CCN(S(=O)(=O)c2ccc(-c3cnco3)s2)CC1=O [Example 161, (S)-3-cyclohexyl-2-(4-(5-(oxazol-5-yl)thiophen-2-ylsulfonyl)-2-oxopiperazin-1-yl)-N-(thiazol-2-yl)propanamide]	1580 to 2510 nM	97.1 to 107%
Cc1cc(F)ccc1S(=O)(=O)N1CCN([C@@H](CC2CCCCC2)C(=O)Nc2nccs2)C(=O)C1 [Example 223, (S)-3-cyclohexyl-2-(4-(4-fluoro-2-methylphenylsulfonyl)-2-oxopiperazin-1-yl)-N-(thiazol-2-yl)propanamide]	1580 to 2510 nM	97.1 to 107%
CC(=O)c1cccc(S(=O)(=O)N2CCN([C@@H](CC3CCCCC3)C(=O)Nc3nccs3)C(=O)C2)c1 [Example 196, (S)-2-(4-(3-acetylphenylsulfonyl)-2-oxopiperazin-1-yl)-3-cyclohexyl-N-(thiazol-2-yl)propanamide]	1580 to 2510 nM	97.1 to 107%
Cc1c(Cl)cccc1S(=O)(=O)N1CCN([C@@H](CC2CCCCC2)C(=O)Nc2nccs2)C(=O)C1 [Example 51, (S)-2-(4-(3-chloro-2-methylphenylsulfonyl)-2-oxopiperazin-1-yl)-3-cyclohexyl-N-(thiazol-2-yl)propanamide]	1580 to 2510 nM	74.1 to 97%
Cc1ccc(S(=O)(=O)N2CCN([C@@H](CC3CCCCC3)C(=O)Nc3nccs3)C(=O)C2)cc1Cl [Example 94, (S)-2-(4-(3-chloro-4-methylphenylsulfonyl)-2-oxopiperazin-1-yl)-3-cyclohexyl-N-(thiazol-2-yl)propanamide]	794 to 1260 nM	108 to 119%
O=C(Nc1nccs1)[C@H](CC1CCCCC1)N1CCN(C(=O)Nc2ccc(OCc3ccccc3)cc2)CC1=O [Example 146, (S)-N-(4-(benzyloxy)phenyl)-4-(3-cyclohexyl-1-oxo-1-(thiazol-2-ylamino)propan-2-yl)-3-oxopiperazine-1-carboxamide]	≥ 3160 nM	≤ 74%
Cc1ccccc1S(=O)(=O)N1CCN([C@@H](CC2CCCCC2)C(=O)Nc2nccs2)C(=O)C1 [Example 218, (S)-3-cyclohexyl-2-(2-oxo-4-(o-tolylsulfonyl)piperazin-1-yl)-N-(thiazol-2-yl)propanamide]	794 to 1260 nM	108 to 119%

Continued, values first:

EC50	Emax	SMILES
794 to 1260 nM	108 to 119%	O=C(Nc1nccs1)[C@H](CC1CCCCC1)N1CCN(S(=O)(=O)c2ccc(F)cc2F)CC1=O [Example 58, (S)-3-cyclohexyl-2-(4-(2,4-difluorophenylsulfonyl)-2-oxopiperazin-1-yl)-N-(thiazol-2-yl)propanamide]
794 to 1260 nM	≤ 74%	O=C(Nc1nccs1)[C@H](CC1CCCCC1)N1CCN(S(=O)(=O)CCc2ccc(Cl)cc2)CC1=O [Example 98, (S)-2-(4-(4-chlorophenethylsulfonyl)-2-oxopiperazin-1-yl)-3-cyclohexyl-N-(thiazol-2-yl)propanamide]
794 to 1260 nM	≥ 119%	CC(C)C[C@@H](C(=O)Nc1ncc(F)s1)N1CCN(S(=O)(=O)C2CC2)CC1=O [Example 11, (S)-2-(4-(cyclopropylsulfonyl)-2-oxopiperazin-1-yl)-N-(5-fluorothiazol-2-yl)-4-methylpentanamide]
≤ 631 nM	≥ 119%	O=C(Nc1nccs1)[C@H](CC1CCCCC1)N1CCN(S(=O)(=O)C2CCCCC2)CC1=O [Example 227]
≤ 631 nM	108 to 119%	O=C(Nc1nccs1)[C@H](CC1CCCCC1)N1CCN(S(=O)(=O)c2cc(F)ccc2F)CC1=O [Example 184, (S)-3-cyclohexyl-2-(4-(2,5-difluorophenylsulfonyl)-2-oxopiperazin-1-yl)-N-(thiazol-2-yl)propanamide]
≤ 631 nM	≥ 119%	O=C(Nc1nccs1)[C@H](CC1CCCCC1)N1CCN(S(=O)(=O)C2CCCC2)CC1=O [Example 113, (S)-3-cyclohexyl-2-(4-(cyclopentylsulfonyl)-2-oxopiperazin-1-yl-N-thiazol-2-yl)propanamide]
≤ 631 nM	74.1 to 97%	Cc1c(Cl)cc(F)cc1S(=O)(=O)N1CCN([C@@H](CC2CCCCC2)C(=O)Nc2nccs2)C(=O)C1 [Example 187, (S)-2-(4-(3-chloro-5-fluoro-2-methylphenylsulfonyl)-2-oxopiperazin-1-yl)-3-cyclohexyl-N-(thiazol-2-yl)propanamide]
